Laboratory results from ChEMBL document CHEMBL5331050, “Spiro[benzoxazine-piperidin]-one derivatives as chitin synthase inhibitors and antifungal agents: Design, synthesis and biological evaluation” (Eur J Med Chem, 2022).
≈ marks a conversion by molar mass, not a printed value.

How the values were obtained:
[1] = Inhibition of chitin synthase (unknown origin); design: species or system Fungi
Candida albicans [2] = assay: Antifungal activity against Candida albicans ATCC 76615 assessed as fungal growth inhibition incubated for 24 hrs by CLSI protocol based broth microdilution method; format: functional
Aspergillus flavus [3] = assay: Antifungal activity against Aspergillus flavus ATCC 16870 assessed as fungal growth inhibition incubated for 24 hrs by CLSI protocol based broth microdilution method; format: functional
Aspergillus fumigatus [4] = assay: Antifungal activity against Aspergillus fumigatus GIMCC 3.19 assessed as fungal growth inhibition incubated for 24 hrs by CLSI protocol based broth microdilution method; format: functional
Cryptococcus neoformans [5] = assay: Antifungal activity against Cryptococcus neoformans ATCC 208821 assessed as fungal growth inhibition incubated for 24 hrs by CLSI protocol based broth microdilution method; format: functional
Candida albicans [6] = assay: Antifungal activity against fluconazole-resistant Candida albicans ATCC 76615R assessed as fungal growth inhibition; format: functional
Cryptococcus neoformans [7] = assay: Antifungal activity against fluconazole-resistant Cryptococcus neoformans ATCC 208821R assessed as fungal growth inhibition; format: functional
Candida albicans [8] = assay: (§1) Synergistic antifungal activity against Candida albicans ATCC 76615 assessed as fungal growth inhibition incubated for 24 hrs in the presence of N-(4-bromophenyl)-4-(6-methoxy-2-oxo-1,2-dihydrospiro[benzo[d][1,3]oxazine-4,4'-piperidin]-1'-yl)-4-oxobut-2-enamide by broth dilution based checkerboard method; format: functional
Aspergillus fumigatus [9] = assay: as §1, with “Aspergillus fumigatus GIMCC 3.19” for “Candida albicans ATCC 76615”; format: functional
Cryptococcus neoformans [10] = assay: as §1, with “Cryptococcus neoformans” for “Candida albicans”, “208821” for “76615”; format: functional
Aspergillus flavus [11] = assay: as §1, with “Aspergillus flavus” for “Candida albicans”, “16870” for “76615”; format: functional
Candida albicans [12] = assay: (§2) Synergistic antifungal activity against Candida albicans ATCC 76615 assessed as fungal growth inhibition incubated for 24 hrs in the presence of 4-(6-methoxy-2-oxo-1,2-dihydrospiro[benzo[d][1,3]oxazine-4,4'-piperidin]-1'-yl)-N-(4-methoxyphenyl)-4-oxobut-2-enamide by broth dilution based checkerboard method; format: functional
Aspergillus fumigatus [13] = assay: as §2, with “Aspergillus fumigatus GIMCC 3.19” for “Candida albicans ATCC 76615”; format: functional
Cryptococcus neoformans [14] = assay: as §2, with “Cryptococcus neoformans” for “Candida albicans”, “208821” for “76615”; format: functional
Aspergillus flavus [15] = assay: as §2, with “Aspergillus flavus” for “Candida albicans”, “16870” for “76615”; format: functional
Candida albicans [16] = assay: (§3) Synergistic antifungal activity against Candida albicans ATCC 76615 assessed as fungal growth inhibition incubated for 24 hrs in the presence of 4-(6-methoxy-2-oxo-1,2-dihydrospiro[benzo[d][1,3]oxazine-4,4'-piperidin]-1'-yl)-4-oxo-N-phenylbut-2-enamide by broth dilution based checkerboard method; format: functional
Aspergillus fumigatus [17] = assay: as §3, with “Aspergillus fumigatus GIMCC 3.19” for “Candida albicans ATCC 76615”; format: functional
Cryptococcus neoformans [18] = assay: as §3, with “Cryptococcus neoformans” for “Candida albicans”, “208821” for “76615”; format: functional
Aspergillus flavus [19] = assay: Synergistic antifungal activity against Aspergillus flavus ATCC 16870 assessed as fungal growth inhibition incubated for 24 hrs in the presence of 4-(6-methoxy-2-oxo-1,2-dihydrospiro[benzo[d][1,3]oxazine-4,4'-piperidin]-1'-yl)-4-oxo-N-phenylbut-2-enamide by broth dilution based checkerboard method; format: functional
Candida albicans [20] = assay: (§4) Synergistic antifungal activity against Candida albicans ATCC 76615 assessed as fungal growth inhibition incubated for 24 hrs in the presence of N-(2-chlorophenyl)-4-(6-methoxy-2-oxo-1,2-dihydrospiro[benzo[d][1,3]oxazine-4,4'-piperidin]-1'-yl)-4-oxobut-2-enamide by broth dilution based checkerboard method; format: functional
Aspergillus fumigatus [21] = assay: Synergistic antifungal activity against Aspergillus fumigatus GIMCC 3.19 assessed as fungal growth inhibition incubated for 24 hrs in the presence of N-(2-chlorophenyl)-4-(6-methoxy-2-oxo-1,2-dihydrospiro[benzo[d][1,3]oxazine-4,4'-piperidin]-1'-yl)-4-oxobut-2-enamide by broth dilution based checkerboard method; format: functional
Cryptococcus neoformans [22] = assay: as §4, with “Cryptococcus neoformans” for “Candida albicans”, “208821” for “76615”; format: functional
Aspergillus flavus [23] = assay: Synergistic antifungal activity against Aspergillus flavus ATCC 16870 assessed as fungal growth inhibition incubated for 24 hrs in the presence of N-(2-chlorophenyl)-4-(6-methoxy-2-oxo-1,2-dihydrospiro[benzo[d][1,3]oxazine-4,4'-piperidin]-1'-yl)-4-oxobut-2-enamide by broth dilution based checkerboard method; format: functional
Candida albicans [24] = assay: (§5) Synergistic antifungal activity against Candida albicans ATCC 76615 assessed as fungal growth inhibition incubated for 24 hrs in the presence of 4-(6-methoxy-2-oxo-1,2-dihydrospiro[benzo[d][1,3]oxazine-4,4'-piperidin]-1'-yl)-N-(2-methoxy-4-nitrophenyl)-4-oxobut-2-enamide by broth dilution based checkerboard method; format: functional
Aspergillus fumigatus [25] = assay: Synergistic antifungal activity against Aspergillus fumigatus GIMCC 3.19 assessed as fungal growth inhibition incubated for 24 hrs in the presence of 4-(6-methoxy-2-oxo-1,2-dihydrospiro[benzo[d][1,3]oxazine-4,4'-piperidin]-1'-yl)-N-(2-methoxy-4-nitrophenyl)-4-oxobut-2-enamide by broth dilution based checkerboard method; format: functional
Cryptococcus neoformans [26] = assay: as §5, with “Cryptococcus neoformans” for “Candida albicans”, “208821” for “76615”; format: functional
Aspergillus flavus [27] = assay: Synergistic antifungal activity against Aspergillus flavus ATCC 16870 assessed as fungal growth inhibition incubated for 24 hrs in the presence of 4-(6-methoxy-2-oxo-1,2-dihydrospiro[benzo[d][1,3]oxazine-4,4'-piperidin]-1'-yl)-N-(2-methoxy-4-nitrophenyl)-4-oxobut-2-enamide by broth dilution based checkerboard method; format: functional
Candida albicans [28] = assay: (§6) Synergistic antifungal activity against Candida albicans ATCC 76615 assessed as fungal growth inhibition incubated for 24 hrs in the presence of N-(3-chloro-4-fluorophenyl)-4-(6-methoxy-2-oxo-1,2-dihydrospiro[benzo[d][1,3]oxazine-4,4'-piperidin]-1'-yl)-4-oxobut-2-enamide by broth dilution based checkerboard method; format: functional
Aspergillus fumigatus [29] = assay: Synergistic antifungal activity against Aspergillus fumigatus GIMCC 3.19 assessed as fungal growth inhibition incubated for 24 hrs in the presence of N-(3-chloro-4-fluorophenyl)-4-(6-methoxy-2-oxo-1,2-dihydrospiro[benzo[d][1,3]oxazine-4,4'-piperidin]-1'-yl)-4-oxobut-2-enamide by broth dilution based checkerboard method; format: functional
Cryptococcus neoformans [30] = assay: as §6, with “Cryptococcus neoformans” for “Candida albicans”, “208821” for “76615”; format: functional
Aspergillus flavus [31] = assay: Synergistic antifungal activity against Aspergillus flavus ATCC 16870 assessed as fungal growth inhibition incubated for 24 hrs in the presence of N-(3-chloro-4-fluorophenyl)-4-(6-methoxy-2-oxo-1,2-dihydrospiro[benzo[d][1,3]oxazine-4,4'-piperidin]-1'-yl)-4-oxobut-2-enamide by broth dilution based checkerboard method; format: functional

## Cc1cccc(NC(=O)/C=C/C(=O)NC2Cc3ccccc3NC2=O)c1 (stereo unspecified)
[1]
  IC50: 90 µM

## OC(Cn1cncn1)(Cn1cncn1)c1ccc(F)cc1F [FLUCONAZOLE]
Candida albicans [2]
  MIC: 16 µg/mL (≈ 52.2 µM)
Aspergillus flavus [3]
  MIC: 16 µg/mL (≈ 52.2 µM)
Aspergillus fumigatus [4]
  MIC: 16 µg/mL (≈ 52.2 µM)
Cryptococcus neoformans [5]
  MIC: 32 µg/mL (≈ 104 µM)
Candida albicans [6]
  MIC: 256 µg/mL (≈ 836 µM)
Cryptococcus neoformans [7]
  MIC: 256 µg/mL (≈ 836 µM)
Candida albicans [8]
  MIC: 4 µg/mL
Aspergillus fumigatus [9]
  MIC: 16 µg/mL
Cryptococcus neoformans [10]
  MIC: 16 µg/mL
Aspergillus flavus [11]
  MIC: 32 µg/mL
Candida albicans [12]
  MIC: 16 µg/mL
Aspergillus fumigatus [13]
  MIC: 16 µg/mL
Cryptococcus neoformans [14]
  MIC: 16 µg/mL
Aspergillus flavus [15]
  MIC: 16 µg/mL
Candida albicans [16]
  MIC: 8 µg/mL
Aspergillus fumigatus [17]
  MIC: 4 µg/mL
Cryptococcus neoformans [18]
  MIC: 16 µg/mL
Aspergillus flavus [19]
  MIC: 8 µg/mL
Candida albicans [20]
  MIC: 4 µg/mL
Aspergillus fumigatus [21]
  MIC: 16 µg/mL
Cryptococcus neoformans [22]
  MIC: 4 µg/mL
Aspergillus flavus [23]
  MIC: 16 µg/mL
Candida albicans [24]
  MIC: 16 µg/mL
Aspergillus fumigatus [25]
  MIC: 16 µg/mL
Cryptococcus neoformans [26]
  MIC: 16 µg/mL
Aspergillus flavus [27]
  MIC: 16 µg/mL
Candida albicans [28]
  MIC: 16 µg/mL
Aspergillus fumigatus [29]
  MIC: 4 µg/mL
Cryptococcus neoformans [30]
  MIC: 4 µg/mL
Aspergillus flavus [31]
  MIC: 16 µg/mL
